Data from the NIST ThermoML archive (doi:10.1021/je400056z).

Assay: xn = mol fraction of the nth substance listed
Details: Liquid, Vibrating tube method

CCCCCCC [heptane] + O=C=O
Details	mass density [kg/m3]
312.02 K, 10986 kPa, x2 = 0.9496	729.05
312.02 K, 12001 kPa, x2 = 0.9496	747.88
312.02 K, 13001 kPa, x2 = 0.9496	763.05
312.02 K, 13981 kPa, x2 = 0.9496	776.11
312.02 K, 15000 kPa, x2 = 0.9496	787.02
312.02 K, 16006 kPa, x2 = 0.9496	797.48
312.02 K, 16997 kPa, x2 = 0.9496	806.48
312.02 K, 18005 kPa, x2 = 0.9496	814.74
312.02 K, 19001 kPa, x2 = 0.9496	822.53
312.02 K, 19995 kPa, x2 = 0.9496	829.62
312.02 K, 20996 kPa, x2 = 0.9496	836.32
312.02 K, 22002 kPa, x2 = 0.9496	842.78
312.02 K, 23003 kPa, x2 = 0.9496	848.74
312.02 K, 24007 kPa, x2 = 0.9496	854.47
312.02 K, 24361 kPa, x2 = 0.9496	856.44
312.94 K, 5011 kPa, x2 = 0.3148	693.37
312.94 K, 6008 kPa, x2 = 0.3148	694.74
312.94 K, 7004 kPa, x2 = 0.3148	696.16
312.94 K, 8002 kPa, x2 = 0.3148	697.62
312.94 K, 8997 kPa, x2 = 0.3148	699.03
312.94 K, 9991 kPa, x2 = 0.3148	700.6
312.94 K, 11000 kPa, x2 = 0.3148	701.81
312.94 K, 12009 kPa, x2 = 0.3148	703.08
312.94 K, 13002 kPa, x2 = 0.3148	704.39
312.94 K, 13992 kPa, x2 = 0.3148	705.63
312.94 K, 15009 kPa, x2 = 0.3148	706.99
312.94 K, 16009 kPa, x2 = 0.3148	708.23
312.94 K, 16997 kPa, x2 = 0.3148	709.2
312.94 K, 18018 kPa, x2 = 0.3148	710.45
312.94 K, 19015 kPa, x2 = 0.3148	711.73
312.94 K, 20006 kPa, x2 = 0.3148	712.83
312.94 K, 21008 kPa, x2 = 0.3148	713.93
312.94 K, 22010 kPa, x2 = 0.3148	715.06
312.94 K, 23004 kPa, x2 = 0.3148	716.14
312.94 K, 24017 kPa, x2 = 0.3148	717.34
312.94 K, 24997 kPa, x2 = 0.3148	718.41
312.98 K, 7014 kPa, x2 = 0.7514	729.2
312.98 K, 8012 kPa, x2 = 0.7514	733.47
312.98 K, 8996 kPa, x2 = 0.7514	737.34
312.98 K, 10005 kPa, x2 = 0.7514	741.22
312.98 K, 10989 kPa, x2 = 0.7514	744.88
312.98 K, 12007 kPa, x2 = 0.7514	748.38
312.98 K, 12994 kPa, x2 = 0.7514	751.74
312.98 K, 14005 kPa, x2 = 0.7514	754.92
312.98 K, 14990 kPa, x2 = 0.7514	758
312.98 K, 16009 kPa, x2 = 0.7514	761.15
312.98 K, 17002 kPa, x2 = 0.7514	764.01
312.98 K, 17990 kPa, x2 = 0.7514	766.8
312.98 K, 19008 kPa, x2 = 0.7514	769.54
312.98 K, 20006 kPa, x2 = 0.7514	772.19
312.98 K, 21018 kPa, x2 = 0.7514	774.69
312.98 K, 21997 kPa, x2 = 0.7514	777.23
312.98 K, 23004 kPa, x2 = 0.7514	779.67
312.98 K, 23994 kPa, x2 = 0.7514	782.07
312.98 K, 24571 kPa, x2 = 0.7514	783.46
313.03 K, 5011 kPa, x2 = 0.5085	706.14
313.03 K, 6005 kPa, x2 = 0.5085	708.31
313.03 K, 7004 kPa, x2 = 0.5085	710.37
313.03 K, 8011 kPa, x2 = 0.5085	712.42
313.03 K, 8996 kPa, x2 = 0.5085	714.37
313.03 K, 10001 kPa, x2 = 0.5085	716.4
313.03 K, 11006 kPa, x2 = 0.5085	718.29
313.03 K, 11994 kPa, x2 = 0.5085	720.05
313.03 K, 13000 kPa, x2 = 0.5085	721.92
313.03 K, 14002 kPa, x2 = 0.5085	723.71
313.03 K, 15010 kPa, x2 = 0.5085	725.36
313.03 K, 16006 kPa, x2 = 0.5085	727.16
313.03 K, 17002 kPa, x2 = 0.5085	728.84
313.03 K, 18023 kPa, x2 = 0.5085	730.55
313.03 K, 19009 kPa, x2 = 0.5085	732.08
313.03 K, 20003 kPa, x2 = 0.5085	733.69
313.03 K, 21000 kPa, x2 = 0.5085	735.25
313.03 K, 22016 kPa, x2 = 0.5085	736.75
313.03 K, 23006 kPa, x2 = 0.5085	738.31
313.03 K, 24019 kPa, x2 = 0.5085	739.74
313.03 K, 25004 kPa, x2 = 0.5085	741.18
313.08 K, 2007 kPa, x2 = 0.0218	670.88
313.08 K, 3009 kPa, x2 = 0.0218	671.95
313.08 K, 4008 kPa, x2 = 0.0218	673.02
313.08 K, 5014 kPa, x2 = 0.0218	674.05
313.08 K, 6010 kPa, x2 = 0.0218	675.07
313.08 K, 7005 kPa, x2 = 0.0218	676.19
313.08 K, 8174 kPa, x2 = 0.0218	677.13
313.08 K, 9005 kPa, x2 = 0.0218	678.13
313.08 K, 10008 kPa, x2 = 0.0218	679.18
313.08 K, 11000 kPa, x2 = 0.0218	680.15
313.08 K, 12009 kPa, x2 = 0.0218	681.11
313.08 K, 13002 kPa, x2 = 0.0218	682.02
313.08 K, 14006 kPa, x2 = 0.0218	683
313.08 K, 15004 kPa, x2 = 0.0218	683.85
313.08 K, 16007 kPa, x2 = 0.0218	684.89
313.08 K, 17002 kPa, x2 = 0.0218	685.71
313.08 K, 18005 kPa, x2 = 0.0218	686.44
313.08 K, 19010 kPa, x2 = 0.0218	687.37
313.08 K, 20009 kPa, x2 = 0.0218	688.24
313.08 K, 21004 kPa, x2 = 0.0218	689.1
313.08 K, 22010 kPa, x2 = 0.0218	689.97
313.08 K, 23003 kPa, x2 = 0.0218	690.81
313.08 K, 24007 kPa, x2 = 0.0218	691.63
313.08 K, 24906 kPa, x2 = 0.0218	692.41
322.85 K, 5012 kPa, x2 = 0.3148	682.49
322.85 K, 6012 kPa, x2 = 0.3148	684.11
322.85 K, 7008 kPa, x2 = 0.3148	685.75
322.85 K, 8009 kPa, x2 = 0.3148	687.35
322.85 K, 8996 kPa, x2 = 0.3148	688.86
322.85 K, 10005 kPa, x2 = 0.3148	690.36
322.85 K, 11012 kPa, x2 = 0.3148	691.87
322.85 K, 11996 kPa, x2 = 0.3148	693.32
322.85 K, 13003 kPa, x2 = 0.3148	694.75
322.85 K, 14006 kPa, x2 = 0.3148	696.09
322.85 K, 15010 kPa, x2 = 0.3148	697.48
322.85 K, 16003 kPa, x2 = 0.3148	698.79
322.85 K, 17009 kPa, x2 = 0.3148	700.14
322.85 K, 18001 kPa, x2 = 0.3148	701.39
322.85 K, 19012 kPa, x2 = 0.3148	702.67
322.85 K, 20007 kPa, x2 = 0.3148	703.86
322.85 K, 21000 kPa, x2 = 0.3148	705.12
322.85 K, 22017 kPa, x2 = 0.3148	706.33
322.85 K, 23010 kPa, x2 = 0.3148	707.55
322.85 K, 23985 kPa, x2 = 0.3148	708.71
322.85 K, 25004 kPa, x2 = 0.3148	709.93
322.91 K, 8013 kPa, x2 = 0.7514	707.83
322.91 K, 8994 kPa, x2 = 0.7514	712.85
322.91 K, 10015 kPa, x2 = 0.7514	717.65
322.91 K, 10996 kPa, x2 = 0.7514	722.08
322.91 K, 12005 kPa, x2 = 0.7514	726.29
322.91 K, 13025 kPa, x2 = 0.7514	730.31
322.91 K, 13986 kPa, x2 = 0.7514	733.99
322.91 K, 15009 kPa, x2 = 0.7514	737.66
322.91 K, 16002 kPa, x2 = 0.7514	741.14
322.91 K, 17007 kPa, x2 = 0.7514	744.51
322.91 K, 17997 kPa, x2 = 0.7514	747.63
322.91 K, 19009 kPa, x2 = 0.7514	750.74
322.91 K, 20004 kPa, x2 = 0.7514	753.71
322.91 K, 21008 kPa, x2 = 0.7514	756.6
